Data from patent US4572913A, “Use of 3-(arylmethyleneamino)-1-aryl-2-pyrazolines in the prophylaxis and treatment of inflammation, pain, pyresis, and asthma” (Burroughs Wellcome Co., priority 1980, dated 1986).

How the values were obtained:
[1] = target: lipoxygenase; test: inhibition of lipoxygenase, enzyme assay according to the method of Blackwell and Flower; type: biochemical
[2] = target: cyclo-oxygenase; test: inhibition of cyclo-oxygenase, enzyme assay according to the method of Blackwell and Flower; type: biochemical
cyclo-oxygenase, sequence (P23219 24-599): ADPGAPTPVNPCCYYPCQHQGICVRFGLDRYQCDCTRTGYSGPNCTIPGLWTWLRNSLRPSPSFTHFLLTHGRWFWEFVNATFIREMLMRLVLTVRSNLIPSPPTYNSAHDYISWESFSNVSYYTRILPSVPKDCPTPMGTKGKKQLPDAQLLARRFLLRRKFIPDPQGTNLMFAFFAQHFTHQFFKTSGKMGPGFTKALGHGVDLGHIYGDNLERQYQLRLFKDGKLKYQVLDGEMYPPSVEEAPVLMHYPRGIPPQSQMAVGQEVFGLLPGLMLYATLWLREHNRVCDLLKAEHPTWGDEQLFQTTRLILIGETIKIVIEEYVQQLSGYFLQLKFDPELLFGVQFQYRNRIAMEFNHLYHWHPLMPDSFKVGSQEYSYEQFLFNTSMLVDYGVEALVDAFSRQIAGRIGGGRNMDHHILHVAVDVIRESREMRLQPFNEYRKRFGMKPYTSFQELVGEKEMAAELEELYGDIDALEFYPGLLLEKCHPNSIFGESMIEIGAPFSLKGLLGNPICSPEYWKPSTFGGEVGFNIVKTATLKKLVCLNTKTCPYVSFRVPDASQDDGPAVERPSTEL

IC50 [1]	IC50 [2]	SMILES
~3000 nM	1000 nM	FC(F)(F)c1cccc(N2CCC(N=Cc3ccccn3)=N2)c1 [Example 2, 3-(2-pyridylmethyleneamino)-1-(3-trifluoromethylphenyl)-2-pyrazoline]
1000 nM	< 1000 nM	FC(F)(F)c1cccc(N2CCC(N=Cc3ccc[nH]3)=N2)c1 [Example 3, 3-(2-pyrrolylmethyleneamino)-1-(3-trifluoromethylphenyl)-2-pyrazoline]
~3000 nM	~3000 nM	Oc1ccccc1C=NC1=NN(c2cccc(C(F)(F)F)c2)CC1 [Example 4, 3-salicylideneamino-1-(3-trifluoromethylphenyl)-2-pyrazoline]
6000 nM	10000 nM	FC(F)(F)c1cccc(N2CCC(N=Cc3cccc4ccccc34)=N2)c1 [Example 7, 3-(1-naphthylmethyleneamino)-1-(3-trifluoromethylphenyl)-2-pyrazoline]
12000 nM	5000 nM	Cc1ccc(C=NC2=NN(c3ccc4ccccc4c3)CC2)cc1 [Example 8, 3-(4-methylbenzylideneamino)-1-(2-naphthyl)-2-pyrazoline]
> 10000 nM	~5000 nM	Oc1ccccc1C=NC1=NN(c2ccc(Br)c(C(F)(F)F)c2)CC1 [Example 11, 1-(4-bromo-3-trifluoromethylphenyl)-3-(2-hydroxybenzylideneamino)-2-pyrazoline]
~1000 nM	~1000 nM	COc1ccc(C=NC2=NN(c3ccc(Br)c(C(F)(F)F)c3)CC2)cc1 [Example 12, 1-(4-bromo-3-trifluoromethylphenyl)-3-(4-methoxybenzylideneamino)-2-pyrazoline]
< 1000 nM	< 1000 nM	CC(C)(C)c1cccc(N2CCC(N)=N2)c1 [Example 13, 3-Amino-1-(3-t-butylphenyl)-2-pyrazoline]
< 1000 nM	~3000 nM	FC(F)(F)c1cccc(N2CCC(N=Cc3ccccc3)=N2)c1 [Example 15, 3-Benzylideneamino-1-(3-trifluoromethylphenyl)-2-pyrazoline]
~1000 nM	~1000 nM	CC1CN(c2cccc(C(F)(F)F)c2)N=C1N=Cc1ccccc1O (stereo not shown) [Example 18, 4-Methyl-3-salicylideneamino-1-(3-trifluoromethylphenyl)-2-pyrazoline]

SMILES	IC50 [1]	IC50 [2]
O=C(O)CCCCOc1cccc(O)c1C=NC1=NN(c2cccc(C(F)(F)F)c2)CC1 [Example 1, 3-(2-4'-carboxybutoxy-6-hydroxybenzylideneamino)-1-(3-trifluoromethylphenyl)-2-pyrazoline]	10000 to 20000 nM	< 3000 nM
